From PubChem BioAssay (NCI)
“And” between values parts separate entries of the source, which are not always exact repeats. Equal values may be shown once.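 1) Cells in 96-well plates. 2) Compound, 48 h, 5 concentrations. 3) Linear interpolation between surrounding doses. 4) Unreached endpoint = highest concentration. The concentration for 50% growth inhibition is given as GI50. TGI: total growth inhibition.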

Experiments:
Assay in all cases: NCI-60 cell line screen, 48 h
KM12 colon = system: KM12 colon
DU-145 prostate = system: DU-145 prostate
COLO 205 colon = system: COLO 205 colon
MDA-MB-435 = system: MDA-MB-435
OVCAR-4 ovarian = system: OVCAR-4 ovarian
MCF7 breast = system: MCF7 breast
A498 renal = system: A498 renal
SF-268 CNS = system: SF-268 CNS
BT-549 breast = system: BT-549 breast
CAKI-1 renal = system: CAKI-1 renal

Structure (SMILES)	GI50 (KM12 colon)	TGI (KM12 colon)	GI50 (DU-145 prostate)	TGI (DU-145 prostate)	GI50 (COLO 205 colon)	TGI (COLO 205 colon)	GI50 (MDA-MB-435)	GI50 (OVCAR-4 ovarian) [µM]	TGI (OVCAR-4 ovarian) [µM]	GI50 (MCF7 breast)	TGI (MCF7 breast)	GI50 (A498 renal)	TGI (A498 renal)	GI50 (SF-268 CNS)	TGI (SF-268 CNS)	GI50 (BT-549 breast) [µM]	TGI (BT-549 breast) [µM]	TGI (CAKI-1 renal)	TGI (MDA-MB-435)	GI50 (CAKI-1 renal)
C=C1c2nc3ccccc3n2C=C(c2cccc(Cl)c2)N1Cc1ccc(OC)cc1	1.76 µM	16.6 µM	1.8 µM	> 53.5 µM	9.14 µM	35.7 µM	0.158 µM	1.83	> 100	0.331 µM	> 39.4 µM	9.33 µM	60.4 µM	1.05 µM	> 57.2 µM	1.7	> 100	4.71 µM		
CCCCC(=O)N(c1ccc(Nc2c3ccccc3nc3cc([N+](=O)[O-])ccc23)cc1)S(C)(=O)=O	2.63 µM	19.3 µM	1.67 µM	74 µM	12.7 µM	36 µM	18.2 µM	11.1	29.2	0.293 µM	9.83 µM	1.71 µM	13.1 µM	6.58 µM	> 77.7 µM	18.4	80.6	> 51.9 µM	> 93.1 µM	7.03 µM
COc1ccc(OC)c(Nc2nc3nonc3nc2Nc2cccc(Br)c2)c1	1.24 µM	> 100 µM	3.4 µM	> 100 µM	0.853 µM	2.73 µM	0.538 µM	0.867	> 100	1.63 µM	> 100 µM	0.461 µM	4.11 µM	0.982 µM	> 100 µM	0.537	6.97	15.2 µM	> 100 µM	0.811 µM
COC(=O)C1C(C(=O)O)C2(c3ccccc3)C(=O)C1(c1ccccc1)C(c1ccccc1)=C2c1ccccc1 (stereo not drawn)	16 µM	38 µM	16.9 µM	34 µM	18.8 µM	39.3 µM	24.4 µM	15.3	48.3	19.6 µM	37.6 µM	15.2 µM	29.3 µM	20 µM	53.1 µM	18	37.6	40.9 µM	58.9 µM	20.2 µM
Cc1cc(O)ccc1C1=NN(c2ccc(S(N)(=O)=O)cc2)C(=O)CC1	2.89 µM and 6.49 µM	50 µM and > 100 µM	15.1 µM and 46.3 µM	50 µM and > 100 µM	8.8 µM and 36.6 µM	50 µM and > 100 µM	0.994 µM and 1.73 µM	> 100	> 100	2.26 µM and 8.23 µM	50 µM and > 100 µM	9.08 µM and 77.2 µM	50 µM and > 100 µM	10.1 µM and 25.5 µM	50 µM and > 100 µM	1.49	43.6	50 µM and 82.1 µM	4.35 µM and 5.48 µM	4.08 µM and 4.93 µM
CC1=CC(=O)N(c2cccc3c(N4C(=O)C=C(C)C4=O)cccc23)C1=O	11.3 µM	34 µM	4.08 µM	14.4 µM	0.988 µM	2.65 µM	3.13 µM	5.18	16.9	3.95 µM	23.5 µM	26.6 µM	56.5 µM	6.37 µM	23.8 µM	6.44	19.5	13.8 µM	> 37.1 µM	3.61 µM
COc1ccc2c(c1)C(=Nc1ccc(F)c(Cl)c1)c1c-2c(Nc2ccc(F)c(Cl)c2)nc2ccccc12	> 100 µM	> 100 µM	> 100 µM	> 100 µM	> 100 µM	> 100 µM	> 100 µM	24.8	> 75.7	56.2 µM	> 100 µM	28.1 µM	86.8 µM	29.7 µM	> 100 µM	23.4	> 74.4	> 100 µM	> 100 µM	> 65.8 µM
Cc1ccc(/C=N/NC(=O)c2ccccc2Oc2ccccc2)o1	40 µM	> 100 µM	73.2 µM	> 100 µM	61.3 µM	> 100 µM	34.6 µM	24.6	> 100	32.9 µM	> 100 µM	> 58.5 µM	> 100 µM	42.9 µM	> 100 µM	28.4	> 100	> 100 µM	> 100 µM	34.1 µM
COc1ccc(Cn2cc(COc3cc(/C=C/C(=O)c4cc(OC)c(OC)c(OC)c4)ccc3OC)nn2)cc1	3.23 µM	> 100 µM	2.41 µM	5.2 µM	4.36 µM	> 100 µM	2.86 µM	7.04	> 100	3.15 µM	> 100 µM	12.8 µM	> 100 µM	3.75 µM	> 100 µM	3.33	> 100	> 100 µM	> 100 µM	5.68 µM
N#C/C(=C\c1cc(O)c(O)c(O)c1)C(N)=O		> 100 µM		> 100 µM		> 100 µM			> 100		> 56 µM		> 100 µM		> 100 µM		> 100	> 100 µM	> 100 µM	
CN1CCN(CCCNC(=O)c2c3c(n4ccccc24)C(=O)c2ncccc2C3=O)CC1	1.28 µM	19.5 µM	1.6 µM	9.37 µM	0.563 µM	1.67 µM	0.295 µM	0.413	1.56	0.612 µM	2.62 µM	10 µM	25.1 µM	1.28 µM	24.4 µM	7.24	20.6	46.3 µM	0.619 µM	6.76 µM
C/C(=N\NC(=O)c1ccncc1)c1sc(-n2nc(-c3ccccc3)cc2-c2ccccc2)nc1C		> 100 µM		> 31.6 µM		> 100 µM			> 31.6		> 31.6 µM		> 100 µM		> 100 µM		> 31.6	> 100 µM	> 31.6 µM	
Cc1ccc(N)cc1[As]=[As]c1cc(N)ccc1C (stereo not drawn)	1.95 µM	3.81 µM	1.81 µM	3.23 µM	1.33 µM	2.77 µM	1.62 µM	1.42	2.79	0.537 µM	2.75 µM	1.29 µM	2.64 µM	1.56 µM	3.02 µM	1.46	2.8	2.86 µM	3.25 µM	1.5 µM
